In PubChem BioAssay (NCI) one finds TGI and GI50 data, which are given here for ten compounds.

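These data come from cells grown in 96-well plates and exposed to compound for 48 hours at five concentrations. Abbreviation: GI50, concentration required for 50% inhibition of growth. TGI is the concentration that stops growth completely.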

What all share (experiment): NCI anticancer screen, dose series, 48 h
The test system of assay [1] is A549 NSCLC.
The subject of assay [2] is DLD-1 colon.
Assay [3] concerns HL-60(TB) leukemia.
Assay [4] has as its system MDA-MB-231 breast.
The test system of assay [5] is OVCAR-4 ovarian.
For assay [6], the system named is OVCAR-5 ovarian.
The test system of assay [7] is SK-MEL-2 melanoma.
In assay [8] the test system is SW-620 colon.
The subject of assay [9] is T-47D breast.
The test system of assay [10] is XF 498 CNS.

For the compound `CCCCCC/C=C1\CCC(CN(C)C)C1=O` (stereo not given), the TGI is 36.9 µM in assay [1]; 6.18 µM in assay [2]; 4.8 µM in assay [3]; 18 µM in assay [4]; 45.3 µM in [5]; 30.8 µM in assay [6]. Moreover, the TGI in assay [7] was 26.6 µM; in assay [8] it was 6.49 µM; in [9], 9.81 µM; in assay [10], 7.49 µM.

Take `C=C(CN(C)C)C(=O)c1ccc(Oc2ccccc2)cc1`: the TGI in assay [1] stood at 42.6 µM; in [2] it was 6.96 µM; in assay [3], 3.46 µM; in assay [4] it was 15.5 µM; in assay [5], 20.9 µM; in [6], 18.6 µM. The TGI in [7] was 19.6 µM; in assay [8] it was 9.27 µM; in [9], 13.7 µM; in assay [10], 27.9 µM.

Consider `Cc1c(CC/C(=N\Nc2ccc([N+](=O)[O-])cc2[N+](=O)[O-])c2ccccc2)c2ccccc2n1C`, for which the TGI in [1] is more than 100 µM; in assay [2], more than 100 µM; in assay [3], more than 81.2 µM; in assay [5], more than 100 µM; in [6], more than 100 µM; in [7] it was more than 100 µM. The TGI in assay [8] and in assay [10] was more than 100 µM in each case.

`Cc1ccc(NC(=O)CC2C(=O)Nc3ccccc3S2=O)c(C)c1` (stereo not given): the TGI in [1] is 64.8 µM; in assay [2], more than 76.5 µM; in assay [3], 11 µM; in assay [5], 41.6 µM; in [6], more than 100 µM; in [7], 35.9 µM. Besides, the figures for the TGI in assay [8] and in [10] were 67.4 µM and 28.7 µM, respectively.

As to `CCCCCCCCCCCCC(CCCCCCCCCCCC)OP(=O)(O)O`, the TGI in [1], in [2], in assay [3], in assay [5], in assay [6] and in [7] was more than 100 µM throughout. For the same compound, the TGI in assay [8] and in [10] was more than 100 µM throughout.

For `CC[CH2][Sn]([CH2]CC)([O]C(=O)Cc1ccc(F)cc1)[O][Sn]([CH2]CC)([CH2]CC)[O]C(=O)Cc1ccc(F)cc1`, the GI50 is 1.88 µM in assay [1]; 0.122 µM in [2]; 0.0888 µM in assay [3]; 0.406 µM in [4]; 0.276 µM in [5]; 1.44 µM in [6]. Besides, the GI50 is 0.115 µM in assay [7], 0.0773 µM in assay [8], 0.0296 µM in assay [9] and 0.161 µM in assay [10]. In addition, the TGI in [1] was 4.71 µM; in [2], 0.432 µM; in [4] it was 1.76 µM; in assay [5], 1.23 µM; in assay [6] it was 2.84 µM; in assay [7] it was 0.393 µM. For the same compound, the figures for the TGI in assay [8], in assay [9] and in assay [10] were 0.22 µM, 0.211 µM and 0.302 µM, respectively.

As to `Cn1sc2ccccc2c1=S`, the TGI in assay [1] was 28.8 µM; in assay [2], 10.1 µM; in assay [3] it was 27.2 µM; in [5], 19.4 µM; in assay [6], 37.4 µM; in assay [7], 56.5 µM. The TGI in assay [8] turned out to be 5.2 µM; in [10], 25.1 µM.

For `CC1=Nc2ccccc2C12C(c1ccccc1)C(c1ccccc1)C(=O)N1c3ccccc3CC12` (stereo not given), the TGI in assay [1], in [2], in [3], in assay [5], in assay [6] and in assay [7] was more than 100 µM each time. Further, the TGI was more than 100 µM in [8] and 87.2 µM in assay [10].

`COC(=O)[C@@]12C=CC(=O)[C@H]3C[C@@H](C(C(C)C)C1)[C@]32OC` (stereo not given in full): the TGI in [1], in assay [2], in assay [3], in assay [5], in assay [6] and in assay [7] was more than 100 µM each time. Also, the TGI in assay [8] and in [10] was more than 100 µM each time.

On to `COC(=O)C1=C(C)N(NC(N)=O)C(C)(O)C12CCOC2=O` (stereo not given), for which the TGI in [1], in assay [2], in assay [3], in [5], in assay [6] and in assay [7] was more than 100 µM each time. Besides, the TGI in assay [8] and in assay [10] was more than 100 µM each time.
